Experimental findings from patent publication EP4631928A1, “METHOD OF PURIFICATION OF GLYCOLIC ACID, COMPOSITION AND USE THEREOF” (Metabolic Explorer, priority 2024, dated 2025) are described below.

One data set relates to SKINETHIC™ RHE model. The data set is described as follows: Tissue viability, MTT assay on 3D reconstructed human epidermis after topical application. To be noted: for Tissue viability / EC50: 24 hours; for Tissue viability: relative to untreated epidermis; for EC50 value / EC50: concentration reducing viability to 50% of control tissues; for EC50: probit-log regression. Format: cell-based. The protocol: (§1) The assay takes place in two steps: • Step 1: EC50 concentration finding assay is performed with one representative sample. • Step 2: determination of EC50 concentration values and IL-1α levels performed with both GA.
(§2) Prior to GA application, tissue inserts are transferred in 12-well plates prefilled with fresh maintenance medium. 60 µl/cm^2 of each GA solution is applied on top of epidermidis. After application, tissues are incubated for 24 hours at 37°C (±1 °C) and 5% ([…]) CO2.
(§3) The tissue viability is measured with the MTT assay performed in 24 hours. The MTT assay is based on the reduction of 3-(4,5-Dimethylthiazol-2-yl)-2,5-Diphenyltetrazolium Bromide (MTT) into insoluble purple formazan crystals, by metabolically active cells in a mitochondria-dependant reaction catalysed by succinate dehydrogenase. The ability of cells to reduce MTT after exposure to GA, compared to the control (untreated epidermis), enables to deduce the relative toxicity of the applied GA. The optical density (OD) of formazan solution is proportional to the number of viable cells.
(§4) After incubation, tissues are rinsed with PBS and then transferred into 24-well plates pre-filled with MTT solution. After 120 minutes (±10 minutes) of incubation at 37°C (±1 °C), the tissues are transferred into 24-well plates containing DMSO for extraction of formazan. Then the plates are stored overnight at room temperature. At the end of the extraction period, 3 x 200 µl aliquots of formazan extracts are transferred into a 96-well flat bottom microtiter plate and the optical density is read at 570 nm in a microplate reader.
(§5) The optical densities of each replicate are corrected by substracting the mean OD value of blank measured in parallel. The mean from corrected OD values (ODcorr) as well as standard deviation are calculated in each experimental group.
(§6) From the mean ODcorr values, the relative tissue viability (% viab) is calculated as a percentage of the mean viability of the control (untreated epidermis): % viab (treated) = ((treated) ODcorr mean)/((Control ODcorr mean) × 100. [formula]
(§7) The graph represents the dose response curve of cells viability (% viab) versus the GA concentration (C). The EC50 value is calculated from the dose response curve, by using the probit-log regression model.

A further data set has as its system interleukin 1α (IL-1α). In words: Inflammatory response, IL-1α release assay (ELISA) on reconstructed human epidermis. It is filed as cell-based. To be noted: IL-1α level normalized to tissue viability, 24 hours.
Text: The 3D reconstructed human epidermis (RhE) used as test system in the study, is the SKINETHIC™ RHE model commercially available from the company EPISKIN SA. The SKINETHIC™ RHE model is obtained by tissue engineering from untransformed human keratinocytes previously obtained from human epidermis. The model is described in the OECD 439 guideline for in vitro skin irritation of chemical products.
The assay is based on topical application of the tested GA at different concentrations on reconstructed human epidermis (RHE SkinEthic™), followed by evaluation of: • Tissue viability, by MTT colorimetric test to determine the concentration of test product needed to produce the viability to 50% of control tissues (EC50). • SkinEthic™ RHE tissue inflammatory response, by interleukin 1α (IL-1α) release assay.
as §2
At the end of the assay after 24 hours incubation period, the conditioned media underneath tissues are collected, aliquoted and stored at -20°C until IL-1α assay.
IL-1α is quantified using an Elisa kit (Quantikine Human IL-1α DLA50) according to the manufacturer's instructions. The optical densities are read at 450 nm.
IL-1α levels (pg/ml) are interpolated from the standard curve built with IL-1α standard provided with the Elisa kit. The mean of IL-1α release concentrations is calculated in each experimental group. For the comparative analysis, the IL-1α levels were normalized in function of tissue viability (MMT test). The values R (IL-1α/Viab%) ×100) have been calculated at different concentrations with the two GA and collected in the following Table 18: Table 18: IL-1α ratios.

Data set [1] in a line: Tissue viability, MTT assay on 3D reconstructed human epidermis after topical application. It is filed as cell-based. To be noted: human, 24 hours, relative to untreated epidermis. The protocol: as §1, §2, §3, §4, §5, §6, §7
For the next data set, the system named is skin. In words: Usage test, panel questionnaire on skin quality. Format: in vivo, human. To be noted: between the 7th and the 14th day. From the text:
A panel of 60 women with mature skin ranging from normal to dry, were selected to apply to each half of the face, the two tested items: GA-METEX and GA-CONTROL. The panelists were asked about their feeling after 7 and 14 days of daily application. The questionnaire covered items: nourished skin, uniform skin, smooth skin, luminous skin, finer skin texture, firm skin.

As to `O=C(O)CO` [GA-CONTROL, Glycolic acid], the Tissue viability in the data set on SKINETHIC™ RHE model (GA concentration 1.27%) is reported as 62.1%; in the data set with SKINETHIC™ RHE model (GA concentration 1.69%) it was 31.2%; in the data set on SKINETHIC™ RHE model (GA concentration 2.25%), 10.5%; in the data set with SKINETHIC™ RHE model (GA concentration 3%) it was 3.4%. Besides, the EC50 value with SKINETHIC™ RHE model amounted to 1.42%. Besides, the EC50 in the data set with SKINETHIC™ RHE model was found to be 1.42 % p/v. Further, the results for the “R (IL-1α/Viab%) ×100” value in the data set with interleukin 1α (IL-1α) (GA concentration 1.27%), in the data set with interleukin 1α (IL-1α) (GA concentration 1.69%) and in the data set with interleukin 1α (IL-1α) (GA concentration 2.25%) were 15.09, 35.33 and 75.07, respectively.

`O=C(O)CO` [GA-METEX, Glycolic acid] showed a viability at 24 h, 1.27 % in data set [1] (GA concentration 1.27%) of 74.9%. For the same molecule, in data set [1] (GA concentration 3%), the viability at 24 h, 3 % was determined as 3.5%. Moreover, the figures for the Tissue viability in the data set on SKINETHIC™ RHE model (GA concentration 1.69%) and with SKINETHIC™ RHE model (GA concentration 2.25%) were 59,6% and 22.2%, respectively. Moreover, in the data set with SKINETHIC™ RHE model, the EC50 value turned out to be 1.70%. Besides, the EC50 with SKINETHIC™ RHE model was determined as 1.70 % p/v. Besides, the “R (IL-1α/Viab%) ×100” value in the data set with interleukin 1α (IL-1α) (GA concentration 1.27%) turned out to be 10.42; in the data set on interleukin 1α (IL-1α) (GA concentration 1.69%), 18.26; in the data set on interleukin 1α (IL-1α) (GA concentration 2.25%), 35.56. Also, in the data set on skin, the “user satisfaction, evolution” value was “significant increase in user satisfaction”.
